In patent publication US20240041042A1, “1-(PYRIDYL)-5-AZINYLPYRAZOLE DERIVATIVES, AND THEIR USE FOR CONTROL OF UNDESIRED PLANT GROWTH” (Bayer Aktiengesellschaft, priority 2020, published 2024):

Key:
Type in all cases: in vivo
Lolium rigidum (LOLRI) [1] = assay: Post-emergence herbicidal action against LOLRI
Outline: (§1)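 Greenhouse plants sprayed at the one-leaf stage, 2–3 weeks after sowing, with WP or EC formulations plus 0.5% additive at 600 l/ha water. Activity rated visually after about 3 weeks versus untreated controls (100% = dead, 0% = like control), at 320 g/ha or lower.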

[2] = system: Echinochloa crus-galli (ECHCG); assay: Post-emergence herbicidal action against ECHCG
Outline: as §1

Setaria viridis (SETVI) [3] = assay: Pre-emergence herbicidal action against SETVI
Outline: (§2)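 Pre-emergence soil-surface spray, WP/EC formulation, 0.5% additive, 600 l/ha water, rates of 320 g/ha or lower. Greenhouse, ~3 wk. Visual score, % of untreated control (100% = plants dead, 0% = like control).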

[4] = system: Abutilon theophrasti (ABUTH); assay: Pre-emergence herbicidal action against ABUTH; details: 100% = plants have died
Outline: as §2

Lolium rigidum (LOLRI) [5] = assay: Pre-emergence herbicidal action against LOLRI
Outline: as §2

Avena fatua (AVEFA) = assay: Post-emergence herbicidal action against AVEFA; details: visual rating about 3 weeks after treatment
Outline: as §1

[6] = system: Matricaria inodora (MATIN); assay: Pre-emergence herbicidal action against MATIN
Outline: as §2

Setaria viridis (SETVI) [7] = assay: Post-emergence herbicidal action against SETVI
Outline: as §1

Viola tricolor (VIOTR) = assay: Post-emergence herbicidal action against VIOTR
Outline: as §1

[8] = system: Matricaria inodora (MATIN); assay: Post-emergence herbicidal action against MATIN
Outline: as §1

[9] = Dosage column 320 g/ha (title prints 3200 g/ha), scored visually after about 3 weeks
[10] = 80 g/ha, scored visually after about 3 weeks vs untreated controls, 0% = like control plants

SMILES	Post-emergence action against LOLRI in % (Lolium rigidum (LOLRI) [1]; dosage 80 g/ha)	Post-emergence action against LOLRI in % (Lolium rigidum (LOLRI) [1]; dosage 320 g/ha)	Post-emergence action against ECHCG in % ([2]; dosage 320 g/ha)	Pre-emergence action against SETVI in % (Setaria viridis (SETVI) [3]; dosage 80 g/ha)	Pre-emergence action against SETVI in % (Setaria viridis (SETVI) [3]; dosage 320 g/ha)	Pre-emergence action against ABUTH [4, 9]	Pre-emergence action against LOLRI in % (Lolium rigidum (LOLRI) [5]; dosage 80 g/ha)	Pre-emergence action against LOLRI in % (Lolium rigidum (LOLRI) [5]; dosage 320 g/ha)	Post-emergence action against AVEFA in % (Avena fatua (AVEFA); 80 g/ha)	Post-emergence action against AVEFA in % (Avena fatua (AVEFA); 320 g/ha)	Pre-emergence action against MATIN in % ([6]; dosage 80 g/ha)	Pre-emergence action against MATIN in % ([6]; dosage 320 g/ha)	Post-emergence action against SETVI in % (Setaria viridis (SETVI) [7]; dosage 80 g/ha)	Post-emergence action against SETVI in % (Setaria viridis (SETVI) [7]; dosage 320 g/ha)	Post-emergence action against VIOTR in % (Viola tricolor (VIOTR); 320 g/ha)	Post-emergence action against ECHCG in % ([2]; dosage 80 g/ha)	Pre-emergence action against ABUTH [4, 10]	Post-emergence action against MATIN in % ([8]; dosage 80 g/ha)	Post-emergence action against MATIN in % ([8]; dosage 320 g/ha)	Post-emergence action against VIOTR in % (Viola tricolor (VIOTR); 80 g/ha)
C[C@@H](Oc1nn(-c2ncccc2F)c(-c2ccc(F)nc2)c1Br)C(=O)O [Example I-10]	90%	90%	80%	100%	100%	80%	100%	100%	80%	90%	80%	100%	80%	80%	80%					
CCOC(=O)[C@@H](C)Oc1nn(-c2nc(F)ccc2F)c(-c2cncc(F)c2)c1Cl [Example I-208]		80%	90%	90%	100%	90%	90%	100%			90%	90%	80%	80%	80%	80%	80%	80%	80%	80%
COCCOC(=O)COc1nn(-c2ccccn2)c(-c2ccc(F)nc2)c1Br [Example I-96]	90%	90%	90%	100%	100%	80%	90%	100%	80%	90%		100%	90%	90%	90%	90%			80%	90%
O=C(O)COc1nn(-c2ncccc2F)c(-c2cncc(F)c2)c1C1CC1 [Example I-175]	80%	80%	80%	90%	100%	90%	100%	100%	80%	80%	90%	90%		80%	80%	80%	80%			80%
COC(=O)COc1nn(-c2ncccc2F)c(-c2cncc(F)c2)c1Br [Example I-16]			80%	90%	100%		90%	100%			100%	100%	80%	80%	80%	80%			80%	80%
COC(=O)COc1nn(-c2ncccc2F)c(-c2cncc(F)c2)c1C1CC1 [Example I-167]	80%	80%	80%	100%	100%	90%	100%	100%	80%	90%	90%	90%		80%	80%	80%				80%
O=C(O)COc1nn(-c2ncccc2F)c(-c2ccc(F)nc2)c1Br [Example I-17]		80%	80%	100%	100%	90%		100%		80%	90%	100%	80%	80%	80%	80%				80%
O=C(O)COc1nn(-c2ccccn2)c(-c2cncnc2)c1Br [Example I-66]		90%	90%	100%	100%		80%	100%		100%		90%	80%	90%	90%	80%		80%	90%	80%
CCOC(=O)COc1nn(-c2ccccn2)c(-c2ccc(F)nc2)c1Cl [Example I-85]	100%	100%	90%	100%	100%			100%		100%	100%	100%	90%	100%	100%	90%		80%	90%	100%
CCOC(=O)COc1nn(-c2ccccn2)c(-c2ccc(F)nc2)c1Br [Example I-02]	80%	80%	90%	100%	100%		90%	100%		80%		100%	80%	80%	80%	90%		80%	80%	
COC(=O)C(C)COC(=O)C(C)Oc1nn(-c2ccccn2)c(-c2ccc(F)nc2)c1Cl (centres unmarked) [Example I-291]	80%	80%	80%	90%	90%		90%	100%	80%	80%		90%	80%	80%	80%	80%				80%
